Drawing on patent US20230113037A1 (Bayer Aktiengesellschaft, priority 2019, published 2023), this text covers IC50 for 20 molecules.

In assay [1] the target is T1, AHR (Mus musculus, UniProt P30561).
T1 sequence (P30561 1-848 P471L/N533S/M589L): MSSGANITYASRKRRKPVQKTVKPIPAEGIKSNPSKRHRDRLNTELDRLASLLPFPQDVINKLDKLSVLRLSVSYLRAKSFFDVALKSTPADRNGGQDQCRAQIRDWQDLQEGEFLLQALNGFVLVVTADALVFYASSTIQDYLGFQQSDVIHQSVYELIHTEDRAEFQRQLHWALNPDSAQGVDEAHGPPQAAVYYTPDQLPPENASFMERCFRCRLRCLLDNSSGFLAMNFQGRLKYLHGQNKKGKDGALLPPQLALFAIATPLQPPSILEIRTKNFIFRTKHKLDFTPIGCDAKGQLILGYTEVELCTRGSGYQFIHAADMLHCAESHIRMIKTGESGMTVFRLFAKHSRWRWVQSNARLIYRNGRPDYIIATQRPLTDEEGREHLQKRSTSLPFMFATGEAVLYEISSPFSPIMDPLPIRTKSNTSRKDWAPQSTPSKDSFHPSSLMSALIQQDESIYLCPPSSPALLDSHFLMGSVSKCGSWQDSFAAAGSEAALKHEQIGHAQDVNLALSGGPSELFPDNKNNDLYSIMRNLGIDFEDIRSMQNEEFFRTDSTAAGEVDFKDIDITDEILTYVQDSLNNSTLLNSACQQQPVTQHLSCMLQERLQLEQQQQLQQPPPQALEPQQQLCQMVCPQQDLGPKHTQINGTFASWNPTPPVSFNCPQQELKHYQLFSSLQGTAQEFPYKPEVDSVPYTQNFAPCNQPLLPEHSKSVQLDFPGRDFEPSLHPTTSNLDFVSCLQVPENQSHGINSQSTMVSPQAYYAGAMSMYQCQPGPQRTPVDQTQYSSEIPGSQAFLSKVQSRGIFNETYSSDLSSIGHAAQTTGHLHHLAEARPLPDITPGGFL
Description: In vitro assay 3: antagonism in mouse cell line (AHR transactivation, firefly luciferase reporter, kynurenic acid prestimulated). The class given is cell-based. The essentials: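 Mouse cells stably carrying a DRE-driven AHR-inducible firefly luciferase reporter were prestimulated with the endogenous agonist kynurenic acid before compound addition. Luciferase read by SteadyGlo; cells without kynurenic acid served as full-inhibition control, with normalization to positive and negative controls. Repeat tests reported as mean or median.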
A general note: Reporter assays use an easily measured gene product as a stand-in for the process of interest.

Assay [2] concerns the target T2, AHR (Homo sapiens, UniProt P35869).
T2 construct: U87 MG glioblastoma cells (ATCC #HTB-14) endogenously expressing AHR; endogenous in cells; host or cells: U87 MG glioblastoma cells (ATCC #HTB-14)
T2 sequence (P35869 11-848): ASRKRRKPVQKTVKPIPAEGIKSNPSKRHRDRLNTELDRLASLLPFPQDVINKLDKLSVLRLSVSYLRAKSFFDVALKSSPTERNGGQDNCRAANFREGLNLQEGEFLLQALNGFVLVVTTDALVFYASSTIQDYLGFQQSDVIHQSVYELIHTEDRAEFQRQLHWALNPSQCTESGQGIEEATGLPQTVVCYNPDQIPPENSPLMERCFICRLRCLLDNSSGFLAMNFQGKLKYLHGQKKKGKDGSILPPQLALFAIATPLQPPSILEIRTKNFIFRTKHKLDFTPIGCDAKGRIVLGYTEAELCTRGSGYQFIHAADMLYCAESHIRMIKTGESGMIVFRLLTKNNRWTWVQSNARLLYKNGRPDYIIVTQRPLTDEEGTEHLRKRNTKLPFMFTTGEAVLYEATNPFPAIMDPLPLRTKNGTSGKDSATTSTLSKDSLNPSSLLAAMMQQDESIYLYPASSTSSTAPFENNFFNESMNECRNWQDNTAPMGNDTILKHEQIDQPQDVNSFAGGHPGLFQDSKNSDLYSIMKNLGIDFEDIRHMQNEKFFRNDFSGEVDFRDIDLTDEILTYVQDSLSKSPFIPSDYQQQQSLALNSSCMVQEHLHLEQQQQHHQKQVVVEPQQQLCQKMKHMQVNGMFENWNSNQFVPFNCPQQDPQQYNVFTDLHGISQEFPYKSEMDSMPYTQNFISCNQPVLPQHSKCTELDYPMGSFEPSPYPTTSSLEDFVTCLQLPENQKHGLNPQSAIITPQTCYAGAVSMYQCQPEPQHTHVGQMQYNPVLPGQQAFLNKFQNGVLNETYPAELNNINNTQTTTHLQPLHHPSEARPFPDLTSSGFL
The assay is described as follows: In vitro assay 1: antagonism in human cell line (AHR transactivation, firefly luciferase reporter, kynurenic acid prestimulated). The format is cell-based. The conditions noted are these: AHR Antagonism Human IC50 [M]. The essentials:
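U87 MG glioblastoma cells with endogenous AHR, stably carrying a DRE-driven firefly luciferase reporter and constitutive Renilla reporter, prestimulated with kynurenic acid before compound addition. Firefly and Renilla read by dual luciferase; Renilla flags toxicity; normalized to controls (150 μM kynurenic acid + 5 μM staurosporine as full inhibition); repeat values averaged or median.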

[3] abbreviates: mouse Hepa 1c1c7 cells, 200 μM kynurenic acid, 20 hours, read-out: AHR Antagonism Mouse IC50.
[4] abbreviates: Hepa 1c1c7 cells, 200 μM kynurenic acid, 20 hours, firefly luciferase reporter, read-out: AHR Antagonism Mouse IC50.

Structures are written as SMILES. pIC50: −log10 of the molar value. Where two headings read alike, the source gives them in different places.

Usually pIC50 stands for −log10 of the IC50, conventionally taken in molar units. In general, IC50 refers to the point on the concentration scale where inhibition reaches its midpoint. On to `COc1ccc(-c2nc3c4cc(C#N)ccc4nc(N[C@@H]4CCCCNC4=O)n3n2)cc1` [Example 401, 2-(4-Methoxyphenyl)-5-{[(3R)-2-oxoazepan-3-yl]amino}[1,2,4]triazolo[1,5-c]quinazoline-9-carbonitrile], for which the negative-log IC50 (pIC50) in assay [1] (setting [3]) is 8.06. Further, the IC50 in assay [2] came out at 4.44e-09 M.

`COc1ccc(-c2nc3c4cccc(OC5CC5)c4nc(N[C@@H]4CCCCNC4=O)n3n2)cc1` [Example 999, (3R)-3-{[7-(cyclopropyloxy)-2-(4-methoxyphenyl)[1,2,4]triazolo[1,5-c]quinazolin-5-yl]amino}azepan-2-one]: the pIC50 in assay [1] (setting [4]) was 8.37. Half-maximal inhibition in assay [2] (firefly luciferase reporter) (IC50) was put at 6.91e-09 M.

On to `CC[C@H](Nc1nc2ccccc2c2nc(-c3ccc(OC)cc3)nn12)C(N)=O` [Example 434, (2S)-2-{[2-(4-methoxyphenyl)[1,2,4]triazolo[1,5-c]quinazolin-5-yl]amino}butanamide], for which the pIC50 in assay [1] (setting [3]) is 7.12. Moreover, in assay [2], the midpoint of inhibition, the IC50, lay at 6.43e-08 M.

Turning to `C[C@@H](Nc1nc2c(C(F)(F)F)cccc2c2nc(-c3cnn(C)c3)nn12)C(=O)N1CCOCC1` [Example 874, (2R)-2-{[2-(1-methyl-1H-pyrazol-4-yl)-7-(trifluoromethyl)[1,2,4]triazolo[1,5-c]quinazolin-5-yl]amino}-1-(morpholin-4-yl)propan-1-one], the pIC50 in assay [1] (setting [4]) was 7.21. In assay [2] (firefly luciferase reporter), this molecule yielded an IC50 of 2.31e-08 M.

On to `C[C@@H](Nc1nc2c(Br)cccc2c2nc(-c3cnn(C)c3)nn12)C(=O)N1CCOCC1` [Example 785, (2R)-2-{[7-bromo-2-(1-methyl-1H-pyrazol-4-yl)[1,2,4]triazolo[1,5-c]quinazolin-5-yl]amino}-1-(morpholin-4-yl)propan-1-one], for which, in assay [1] (setting [4]), the pIC50 was 7.49. For the same molecule, the IC50 in assay [2] (firefly luciferase reporter) worked out at 2.38e-08 M.

For `O=C1NCCCC[C@H]1Nc1nc2c(Br)cccc2c2nc(-c3cnn(C4CCC4)c3)nn12` [Example 824, (3R)-3-{[7-bromo-2-(1-cyclobutyl-1H-pyrazol-4-yl)[1,2,4]triazolo[1,5-c]quinazolin-5-yl]amino}azepan-2-one], the pIC50 in assay [1] (setting [4]) was 9.07. In assay [2] (firefly luciferase reporter), this molecule had an IC50 of 9.98e-10 M.

Consider `CC(C)n1cc(-c2nc3c4cccc(S(C)(=O)=O)c4nc(N[C@@H]4CCCCNC4=O)n3n2)cn1` [Example 846, (3R)-3-({7-(methanesulfonyl)-2-[1-(propan-2-yl)-1H-pyrazol-4-yl][1,2,4]triazolo[1,5-c]quinazolin-5-yl}amino)azepan-2-one], for which the pIC50 in assay [1] (setting [4]) was 6.63. The same molecule showed an IC50 in assay [2] (firefly luciferase reporter) of 1.29e-08 M.

In the case of `COc1ccc(-c2nc3c4cc(OC)ccc4nc(N[C@@H]4CNCCNC4=O)n3n2)cc1` [Example 279, (6R)-6-{[9-methoxy-2-(4-methoxyphenyl)[1,2,4]triazolo[1,5-c]quinazolin-5-yl]amino}-1,4-diazepan-5-one], the pIC50 in assay [1] (setting [3]) is 6.74. The molecule also gave an IC50 in assay [2] of 3.08e-07 M.

Regarding `C[C@@H](Nc1nc2c(Br)cccc2c2nc(-c3cnn(C)c3)nn12)C(=O)N1C[C@@H]2C[C@H]1CO2` [Example 915, (2R)-2-{[7-bromo-2-(1-methyl-1H-pyrazol-4-yl)[1,2,4]triaozlo[1,5-c]quinazolin-5-yl]amino}-1-[(1S,4S)-2-oxa-5-azabicyclo[2.2.1]heptna-5-yl]propan-1-one], the pIC50 in assay [1] (setting [4]) is 7.73. Also, inhibition in assay [2] (firefly luciferase reporter) was half-maximal at 1.74e-08 M (IC50).

Consider `Cn1cc(-c2nc3c4cc(F)ccc4nc(N[C@@H]4CCCCNC4=O)n3n2)cn1` [Example 232, (3R)-3-{[9-fluoro-2-(1-methyl-1H-pyrazol-4-yl)[1,2,4]triazolo[1,5-c]quinazolin-5-yl]amino}azepan-2-one], for which, in assay [1] (read-out: AHR Antagonism Mouse IC50, mouse Hepa 1c1c7 cells, 200 μM kynurenic acid, 20 hours), the pIC50 was 8.41. In assay [2], this molecule had an IC50 of 8.83e-09 M.

Regarding `Cc1cc(-c2nc3c4ccccc4nc(N[C@H]4CCCCNC4=O)n3n2)cs1` [Example 353], in assay [1] (setting [3]), the pIC50 is 7.56. Also, in assay [2], the IC50 was determined as 2.36e-07 M.

As to `O=C1NCCCC[C@H]1Nc1nc2cccc(C(F)(F)F)c2c2nc(-c3ccc(F)cc3)nn12` [Example 174, (3R)-3-{[2-(4-fluorophenyl)-10-(trifluoromethyl)[1,2,4]triazolo[1,5-c]quinazolin-5-yl]amino}azepan-2-one], the pIC50 in assay [1] (setting [3]) was 8.39. This molecule also gave an IC50 in assay [2] of 2.26e-08 M.

Consider `Cc1cccc(-c2nc3c4ccccc4nc(N[C@@H]4CCCCNC4=O)n3n2)c1` [Example 53, (3R)-3-{[2-(3-methylphenyl)[1,2,4]triazolo[1,5-c]quinazolin-5-yl]amino}azepan-2-one], for which the pIC50 in assay [1] (setting [3]) was 8.28. Further, the IC50 in assay [2] stood at 1.16e-08 M.

In the case of `COc1ccc(-c2nc3c4c(C(F)(F)F)cccc4nc(N[C@@H]4CNCCNC4=O)n3n2)cc1` [Example 285, (6R)-6-{[2-(4-methoxyphenyl)-10-(trifluoromethyl)[1,2,4]triazolo[1,5-c]quinazolin-5-yl]amino}-1,4-diazepan-5-one], the pIC50 in assay [1] (setting [3]) is 6.20. The same molecule came in with an IC50 in assay [2] of 1.36e-06 M.

As to `COc1cccc(-c2nc3c4ccc(F)cc4nc(N[C@H]4CCCCNC4=O)n3n2)c1` [Example 150, (3S)-3-{[8-fluoro-2-(3-methoxyphenyl)[1,2,4]triazolo[1,5-c]quinazolin-5-yl]amino}azepan-2-one], in assay [1] (setting [3]), the pIC50 was 7.31. The molecule further displayed an IC50 in assay [2] of 1.97e-07 M.

For the molecule `CCC[C@@H](Nc1nc2ccccc2c2nc(-c3cc(F)ccc3OC(F)(F)F)nn12)C(=O)NC` [Example 494, N^2-{2-[5-fluoro-2-(trifluoromethoxy)phenyl][1,2,4]triazolo[1,5-c]quinazolin-5-yl}-N-methyl-D-norvalinamide], the pIC50 in assay [1] (setting [3]) was 7.95. Besides, in assay [2], the IC50 was 2.28e-07 M.

Take `CCC[C@@H](Nc1nc2ccccc2c2nc(-c3cscc3OC)nn12)C(=O)NC` [Example 339, N^2-[2-(4-methoxythiophen-3-yl)[1,2,4]triazolo[1,5-c]quinazolin-5-yl]-N-methyl-D-norvalinamide]: the pIC50 in assay [1] (setting [3]) is 6.77. The molecule also showed an IC50 in assay [2] of 3.37e-07 M.

Take `CC(C)n1cc(-c2nc3c4cccc(Br)c4nc(N[C@@H]4CNCCNC4=O)n3n2)cn1` [Example 981, (6R)-6-({7-bromo-2-[1-(propan-2-yl)-1H-pyrazol-4-yl][1,2,4]triazolo[1,5-c]quinazolin-5-yl}amino)-1,4-diazepan-5-one]: the pIC50 in assay [1] (setting [4]) is 8.23. Also, the IC50 in assay [2] (firefly luciferase reporter) turned out to be 2.69e-09 M.

In the case of `COC(=O)[C@H](Nc1nc2c(Br)cccc2c2nc(-c3ccc(OC)cc3)nn12)C(C)C` [Example 867, methyl N-[7-bromo-2-(4-methoxyphenyl)[1,2,4]triazolo[1,5-c]quinazolin-5-yl]-D-valinate], in assay [1] (setting [4]), the pIC50 is 8.52. The molecule also came in with a half-maximal inhibitory concentration (IC50) in assay [2] (firefly luciferase reporter) of 2.6e-09 M.

Consider `O=C1NCCCC[C@H]1Nc1nc2c(C(F)(F)F)cccc2c2nc(-c3ccc(Cl)cc3OC(F)F)nn12` [Example 673, (3R)-3-({2-[4-chloro-2-(difluoromethoxy)phenyl]-7-(trifluoromethyl)[1,2,4]triazolo[1,5-c]quinazolin-5-yl}amino)azepan-2-one], for which the pIC50 in assay [1] (setting [3]) was 8.80. In assay [2], the 50% inhibitory concentration (IC50) was more than 2e-05 M.
